Assay [1] deals with T1, GC-B (Rattus norvegicus, UniProt P16067).
T1 construct: rapid homologous desensitization of endogenous GC-B receptors in GH3 cells; endogenous in cells; host or cells: GH3 rat somatolactotrope cells
T1 sequence (P16067 17-1047): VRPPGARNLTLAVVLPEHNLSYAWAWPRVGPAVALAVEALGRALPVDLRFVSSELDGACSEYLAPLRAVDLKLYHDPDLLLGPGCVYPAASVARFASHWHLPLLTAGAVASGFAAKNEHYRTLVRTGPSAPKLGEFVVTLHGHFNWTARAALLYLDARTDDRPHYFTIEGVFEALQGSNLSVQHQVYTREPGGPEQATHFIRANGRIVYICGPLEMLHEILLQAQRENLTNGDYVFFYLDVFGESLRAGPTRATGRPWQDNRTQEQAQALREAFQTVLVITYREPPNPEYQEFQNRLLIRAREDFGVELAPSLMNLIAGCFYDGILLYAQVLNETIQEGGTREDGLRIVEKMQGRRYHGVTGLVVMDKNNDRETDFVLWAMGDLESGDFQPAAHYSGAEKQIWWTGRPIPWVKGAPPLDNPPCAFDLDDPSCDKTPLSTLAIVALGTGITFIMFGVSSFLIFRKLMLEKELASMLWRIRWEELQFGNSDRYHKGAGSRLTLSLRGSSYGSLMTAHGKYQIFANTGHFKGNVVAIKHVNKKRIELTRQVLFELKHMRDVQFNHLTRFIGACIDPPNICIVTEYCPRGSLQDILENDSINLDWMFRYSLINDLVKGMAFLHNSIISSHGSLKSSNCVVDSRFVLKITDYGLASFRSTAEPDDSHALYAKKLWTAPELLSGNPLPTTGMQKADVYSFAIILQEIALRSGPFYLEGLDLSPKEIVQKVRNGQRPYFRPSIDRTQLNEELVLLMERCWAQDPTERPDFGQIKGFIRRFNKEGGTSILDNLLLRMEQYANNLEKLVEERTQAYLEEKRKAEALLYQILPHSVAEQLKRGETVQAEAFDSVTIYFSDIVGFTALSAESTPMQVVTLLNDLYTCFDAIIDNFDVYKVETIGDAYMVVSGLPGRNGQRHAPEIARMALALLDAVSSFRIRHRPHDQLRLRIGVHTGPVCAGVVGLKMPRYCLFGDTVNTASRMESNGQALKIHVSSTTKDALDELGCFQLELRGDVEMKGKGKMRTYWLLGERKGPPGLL
The assay is described as follows: Heterologous desensitization of CNP-stimulated (GC-B) cGMP accumulation in GH3 cells. It is filed as cell-based. The source says:
(§1) Sphingolipids and calcium have been implicated in regulating natriuretic peptide signaling (Abbey-Hosch et al. [2004]; Abbey and Potter [2002]). Therefore, we examined the role of sphingosine-1-phosphate (S1P) on CNP-stimulated cGMP accumulation. […] However, S1P pre-treatment did cause desensitization of CNP-stimulated cGMP accumulation (by 30 ± 2.7 % compared with control, **P < 0.01).
(§2) Fig. 6 Evidence of sphingosine-mediated but not calcium-mediated, heterologous desensitization of GC-B signaling in GH3 somatolactotrope cells. GH3 cells were pre-treated with PSS containing either (a, b) 10 μM sphingosine-1-phosphate (S1P) or (c, d) 1 μM A23187 (calcium ionophore) for 30 min in the absence of IBMX, before a 15-min stimulation with either 100 nM CNP (a, c) or 100 nM ANP (b, d) in the presence of 1 mM IBMX.
(§3) Subsequent experiments examined the potential regulation of GC-B signaling by other peptide hormones. To determine whether the GC-B receptor underwent heterologous desensitization in GH3 cells, the effect of three known activators of PKC on CNP-stimulated cGMP accumulation was analyzed. […] To establish whether the TRH-induced heterologous desensitization of GC-B signaling was PKC-dependent, GH3 cells were pre-treated with either 0 or 1 μM GF109203X for 30 min to inhibit PKC activity. After this, cells were further pre-treated in the absence or presence of GF109203X and 0 or 100 nM TRH for a further 30 min, prior to stimulation with 0 or 100 nM CNP for a final 15-min stimulation in the presence of 1 mM IBMX.
(§4) Fig. 7 Protein kinase C (PKC)-dependent heterologous desensitization mediates the effects of thyrotrophin-releasing hormone (TRH) on CNP-stimulated GC-B signaling in GH3 somatolactotrope cells. a GH3 cells were pre-treated with PSS containing either 0 or 100 nM TRH, phorbol-12-myristate-13-acetate (PMA), or pituitary adenylate cyclase-activating polypeptide (PACAP) for 30 min in the absence of IBMX, before a 15-min stimulation with either 0 or 100 nM CNP in the presence of 1 mM IBMX.

In assay [2] the test system is GH3 cells. In words: Basal cGMP accumulation in GH3 cells after pre-treatment. The format is cell-based, rat. Conditions: 30 min pre-treatment.
Text: as §1, §2, §3, §4

Assay [3] deals with T1, GC-B. The assay is described as follows: Effect of protein phosphatase inhibitors on rapid homologous desensitization of CNP-stimulated cGMP accumulation in GH3 cells. The format is cell-based. The following applies: for rate of cGMP accumulation from 5 to 15 min (desensitization): 100 nM CNP, 1 mM IBMX, 30 min pre-treatment with 100 nM OA, 1 nM cypermethrin or 1 mM Na3VO4, control = CNP alone, n = 3; for reversal of the failure to maintain the initial rate of cGMP accumulation: 30 min pre-treatment with phosphatase inhibitor, then 100 nM CNP, discussion statement. As for the experimental part:
Fig. 2 Rapid homologous desensitization of CNP-dependent but not ANP-dependent cGMP accumulation in GH3 cells. Cells were treated with PSS containing either (a) 100 nM CNP or (b) 100 nM ANP for 0–15 min in the presence of 1 mM IBMX.
Similar short time-courses were performed, except that some cells were pre-treated with 100 nM okadaic acid (OA, a PP2A inhibitor), 1 nM cypermethrin (a PP2B inhibitor), or 1 mM sodium orthovanadate (Na3VO4, a protein tyrosine phosphatase inhibitor) for 30 min prior to CNP treatment (Fig. 2c).

In assay [4] the test system is GC-B. The following applies: NIH3T3, A10, 293 T cells; ref Abbey-Hosch et al. [2004], [2005]; cited from earlier work. The source says: Heterologous desensitization of the natriuretic peptide receptors has been widely reported. Sphinogosine signaling is implicated in GC-B desensitization in NIH3T3 fibroblasts, A10 vascular smooth muscle cells and 293 T cells (Abbey-Hosch et al. [2004], [2005]). […] In the current study, we observed a modest effect of S1P pre-treatment of CNP-stimulated cGMP accumulation in GH3 ce ...

Assay [5] has as its target T2, GC-A (Rattus norvegicus, UniProt P18910).
T2 construct: Evidence of homologous desensitization of endogenous GC-A- and GC-B-mediated signaling in GH3 cells; endogenous in cells; host or cells: GH3 rat somatolactotrope cells
T2 sequence (P18910 29-1057): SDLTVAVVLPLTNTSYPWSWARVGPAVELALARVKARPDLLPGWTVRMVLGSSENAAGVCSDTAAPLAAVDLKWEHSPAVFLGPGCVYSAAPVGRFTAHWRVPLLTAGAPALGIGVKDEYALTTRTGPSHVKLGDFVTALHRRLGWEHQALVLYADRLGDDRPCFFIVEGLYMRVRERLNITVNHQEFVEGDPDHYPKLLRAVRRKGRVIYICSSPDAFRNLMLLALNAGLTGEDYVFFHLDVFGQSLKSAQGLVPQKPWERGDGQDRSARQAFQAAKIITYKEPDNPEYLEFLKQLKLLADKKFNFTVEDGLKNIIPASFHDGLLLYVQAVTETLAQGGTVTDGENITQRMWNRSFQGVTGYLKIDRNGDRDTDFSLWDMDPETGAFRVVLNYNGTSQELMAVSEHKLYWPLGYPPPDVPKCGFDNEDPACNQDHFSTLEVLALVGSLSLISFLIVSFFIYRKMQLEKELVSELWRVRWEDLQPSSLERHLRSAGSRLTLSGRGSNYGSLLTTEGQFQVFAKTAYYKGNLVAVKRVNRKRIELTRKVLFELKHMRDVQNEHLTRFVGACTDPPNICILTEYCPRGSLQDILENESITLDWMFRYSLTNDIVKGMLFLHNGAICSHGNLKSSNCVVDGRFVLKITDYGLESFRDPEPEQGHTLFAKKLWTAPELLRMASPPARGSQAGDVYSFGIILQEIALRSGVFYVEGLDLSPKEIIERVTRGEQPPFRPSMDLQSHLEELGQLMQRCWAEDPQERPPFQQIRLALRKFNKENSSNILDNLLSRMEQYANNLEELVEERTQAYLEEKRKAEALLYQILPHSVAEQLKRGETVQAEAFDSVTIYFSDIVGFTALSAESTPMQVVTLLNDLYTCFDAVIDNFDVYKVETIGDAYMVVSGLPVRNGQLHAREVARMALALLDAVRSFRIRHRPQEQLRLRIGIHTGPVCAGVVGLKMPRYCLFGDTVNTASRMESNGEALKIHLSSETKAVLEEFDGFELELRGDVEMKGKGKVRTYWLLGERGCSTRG
In words: Heterologous desensitization of ANP-stimulated (GC-A) cGMP accumulation in GH3 cells. It is filed as cell-based.
Text: as §1
Fig. 6 Evidence of sphingosine-mediated but not calcium-mediated, heterologous desensitization of GC-B signaling in GH3 somatolactotrope cells. […]

Where [6] appears, read: 100 nM TRH, PMA or PACAP, ns, P > 0.05, Fig. 7a.

For the molecule thyrotrophin-releasing hormone [TRH], in assay [1] (100 nM TRH 30 min pre-treatment without GF109203X, then 100 nM CNP 15 min with 1 mM IBMX, P < 0.001, n = 3, Fig. 7b), the “CNP-stimulated cGMP, % of control response to CNP (reduced to)” value was determined as 20.1 ± 5.4%. The “reduction in CNP-stimulated cGMP accumulation compared with control” value in assay [1] (100 nM, 30 min pre-treatment without IBMX, then 100 nM CNP 15 min with 1 mM IBMX, ***P < 0.001, n = 3, Fig. 7a) is on record as 44.6 ± 2.5%. For the same molecule, the “basal cGMP accumulation” value in assay [2] (setting [6]) is “failed to alter basal cGMP accumulation”.
Take `C=C1[C@@H](O)[C@@H]2O[C@]3(CC[C@H](/C=C/[C@@H](C)[C@@H]4CC(C)=C[C@@]5(O[C@H](C[C@@](C)(O)C(=O)O)CC[C@H]5O)O4)O3)CC[C@H]2O[C@@H]1[C@@H](O)C[C@H](C)[C@H]1O[C@@]2(CCCCO2)CC[C@H]1C` [OA, okadaic acid]: in assay [3], the “rate of cGMP accumulation from 5 to 15 min (desensitization)” value (“rate … (desensitization)” for short) is reported as “maintained a significant rate of cGMP accumulation from 5 to 15 min” and the “reversal of the failure to maintain the initial rate of cGMP accumulation” value (“reversal of the failure” for short) is reported as “partially reversed the failure to maintain the initial rate of cGMP accumulation”.
Consider `[Na+].[Na+].[Na+].[O]=[V]([O-])([O-])[O-]` [Na3VO4, sodium orthovanadate], for which, in assay [3], the “rate … (desensitization)” value is reported as “failed to maintain a significant rate of cGMP accumulation” and the “reversal of the failure” value is listed as “failed to reverse the apparent homologous desensitization”.
In the case of “pituitary adenylate cyclase-activating polypeptide [PACAP]”, the “effect on CNP-stimulated cGMP accumulation” value in assay [1] (100 nM PACAP 30 min pre-treatment, then 100 nM CNP 15 min with 1 mM IBMX, ns, P > 0.05, Fig. 7a) was “failed to alter CNP-stimulated cGMP accumulation”. For the same molecule, the “basal cGMP accumulation” value in assay [2] (setting [6]) is “failed to alter basal cGMP accumulation”.
`C[C@H](CCC(=O)O)C[C@H](C)C[C@H](C)C(=O)/C=C(\O)[C@H](C)C[C@H](C)C/C=C/[C@@H](C)[C@@H](O)[C@@H](C)[C@@H](O)C[C@@H]1CC[C@@](C)([C@H]2CC[C@@](C)([C@@H](C)O)O2)O1` [ionomycin]: the “mechanism of GC-B desensitization” value in assay [4] is recorded as “having a similar effect”.
As to `CNc1ccc2oc(C[C@H]3O[C@@]4(CC[C@H]3C)O[C@H]([C@H](C)C(=O)c3ccc[nH]3)[C@H](C)C[C@H]4C)nc2c1C(=O)O` [A23187], in assay [1] (10 μM A23187 30 min pre-treatment, then 100 nM CNP 15 min, Fig. 6c), the “effect on CNP-stimulated cGMP accumulation” value is “failed to alter either CNP- or ANP-stimulated cGMP accumulation”. In addition, the “effect on ANP-stimulated cGMP accumulation” value in assay [5] (10 μM A23187 30 min pre-treatment, then 100 nM ANP 15 min, Fig. 6d) is “failed to alter either CNP- or ANP-stimulated cGMP accumulation”.
Turning to `CC1(C)C(C=C(Cl)Cl)C1C(=O)OC(C#N)c1cccc(Oc2ccccc2)c1` (stereo not drawn) [cypermethrin], in assay [3], the “rate … (desensitization)” value is “failed to maintain a significant rate of cGMP accumulation” and the “reversal of the failure” value was “failed to reverse the apparent homologous desensitization”.
On to `CCCCCCCCCCCCC/C=C/[C@@H](O)[C@@H](N)COP(=O)(O)O` [S1P, sphingosine-1-phosphate], for which the “desensitization (reduction) of CNP-stimulated cGMP accumulation vs control” value in assay [1] (10 μM S1P 30 min pre-treatment without IBMX, then 100 nM CNP 15 min with 1 mM IBMX, **P < 0.01, n = 3, Fig. 6a) came to 30 ± 2.7%. In addition, the “desensitization of ANP-stimulated cGMP accumulation” value in assay [5] (10 μM S1P 30 min pre-treatment, then 100 nM ANP 15 min with 1 mM IBMX, ns, P > 0.05, Fig. 6b) was “did not result in desensitization of ANP-stimulated cGMP accumulation”. Also, in assay [2] (10 μM S1P, Fig. 6a), the “basal cGMP accumulation” value was “failed to significantly alter basal cGMP accumulation”. Also, in assay [4], the “mechanism of GC-B desensitization” value is reported as “does not require PKC activation but is reliant on the elevation of intracellular Ca^2+ levels”.

Source of the values: article PMC3921447, “Homologous and heterologous desensitization of guanylyl cyclase-B signaling in GH3 somatolactotropes” (Cell and Tissue Research, 2013).
